Laboratory results as given in ChEMBL document CHEMBL5370642, “Synthesis and Bioevaluation of 3-(Arylmethylene)indole Derivatives: Discovery of a Novel ALK Modulator with Antiglioblastoma Activities” (J Med Chem, 2023).
Calls of active or inactive are those of the source. The rule behind the calls is not given here.

Experiments:
GL261 [1] = experiment: Anti-proliferative activity against mouse GL261 cells assessed as cell viability incubated for 2 hrs by CCK8 assay; assay type: functional, cell-based; conditions: GL261, 2 h
U-87 MG [2] = experiment: Anti-proliferative activity against human U-87 MG cells assessed as cell viability incubated for 2 hrs by CCK8 assay; assay type: functional, cell-based, U-87MG ATCC
U-87 MG [3] = experiment: Anti-proliferative activity against human U-87 MG cells assessed as inhibition rate incubated for 48 hrs by CCK8 assay; assay type: functional, cell-based; conditions: U-87MG ATCC
GL261 [4] = experiment: Anti-proliferative activity against […] GL261 cells assessed as inhibition rate incubated for 48 hrs by CCK8 assay; assay type: functional, cell-based

SMILES	IC50 (GL261 [1]) [µM]	IC50 (U-87 MG [2]) [µM]	inhibition (U-87 MG [3])	inhibition (GL261 [4])
COc1ccc2c(c1)c(Cc1cc(C)c(O)c(C)c1)cn2S(=O)(=O)c1ccc(C)cc1	56.1	28.1	–	–
C[C@@H](Oc1cc(-c2cnn(C3CCNCC3)c2)cnc1N)c1c(Cl)ccc(F)c1Cl [CRIZOTINIB]	3.43	7.29	–	–
CCC(=O)n1cc(Cc2cc(C)c(O)c(C)c2)c2ccccc21	2850	100	–	–
COc1ccc2c(Cc3cc(C)c(O)c(C)c3)cn(S(=O)(=O)c3ccc(C)cc3)c2c1	38.5	10.4	–	–
Cc1cc(Cc2c[nH]c3ccc(F)cc23)cc(C)c1O	19.2	55.1	–	–
Cc1ccc(S(=O)(=O)n2cc(Cc3cc(C)c(O)c(C)c3)c3cc([N+](=O)[O-])ccc32)cc1	19.7	23.2	–	–
COc1c(C)cc(Cc2cn(S(=O)(=O)c3ccc(C)cc3)c3ccccc23)cc1C	100	> 100	–	–
Cc1cc(Cc2cn(S(=O)(=O)c3ccc([N+](=O)[O-])c(Cl)c3)c3ccccc23)cc(C)c1O	15.7	3.52	–	–
Cc1cc(Cc2cn(C)c3ccccc23)cc(C)c1O	12.7	7.96	–	–
CCn1cc(Cc2cc(C)c(O)c(C)c2)c2ccccc21	100	> 100	–	–
Cc1ccc(S(=O)(=O)n2cc(Cc3cc(C(C)(C)C)c(O)c(C(C)(C)C)c3)c3ccccc32)cc1	100	> 100	–	–
Cc1ccc(S(=O)(=O)n2cc(Cc3cc(C(C)C)c(O)c(C(C)C)c3)c3ccccc32)cc1	90.3	75.4	–	–
Cc1cc(Cc2cn(S(C)(=O)=O)c3ccccc23)cc(C)c1O	100	> 100	–	–
Cc1cc(Cc2c[nH]c3ccccc23)cc(C)c1O	12.8	> 100	–	–
OCc1c[nH]c2ccccc12 [INDOLE-3-CARBINOL]	100	> 100	–	–
Cc1ccc(S(=O)(=O)n2cc(Cc3cc(C)c(O)c(C)c3)c3cc(C#N)ccc32)cc1	9.6	30.2	–	–

SMILES	IC50 (GL261 [1]) [µM]	IC50 (U-87 MG [2]) [µM]	inhibition (U-87 MG [3])	inhibition (GL261 [4])
Cc1cc(Cc2c[nH]c3ccc([N+](=O)[O-])cc23)cc(C)c1O	43.8	74.6	–	–
Cc1cc(Cc2cn(C(=O)c3ccnc4ccccc34)c3ccccc23)cc(C)c1O	11.4	> 100	–	–
Cc1ccc(S(=O)(=O)n2cc(Cc3cc(C)c(O)c(C)c3)c3cc(NC(=O)CCCC[C@@H]4SC[C@@H]5NC(=O)N[C@@H]54)ccc32)cc1	–	–	Active	Active
Cc1cc(Cc2cn(C(=O)c3ccc([N+](=O)[O-])cc3)c3ccccc23)cc(C)c1O	100	> 100	–	–
Cc1cc(Cc2cn(S(=O)(=O)c3ccc([N+](=O)[O-])cc3)c3ccccc23)cc(C)c1O	100	> 100	–	–
CC(=O)n1cc(Cc2cc(C)c(O)c(C)c2)c2ccccc21	25.4	58.3	–	–
Cc1cc(Cc2cn(C(=O)c3ccncn3)c3ccccc23)cc(C)c1O	13.3	> 100	–	–
Cc1cc(Cc2cn(C(=O)c3ccc(N4CCN(C)CC4)cc3)c3ccccc23)cc(C)c1O	3.49	5.59	–	–
Cc1cc(Cc2cn(S(=O)(=O)c3ccc(Br)cc3)c3ccccc23)cc(C)c1O	100	> 100	–	–
Cc1ccc(S(=O)(=O)n2cc(Cc3cc(C)c(O)c(C)c3)c3cc(F)ccc32)cc1	100	42.6	–	–
Cc1cc(Cc2cn(Cc3ccc(Cl)cc3)c3ccccc23)cc(C)c1O	54.9	87.8	–	–
Cc1cc(Cc2cn(C(=O)c3ccc(Cl)cc3)c3ccccc23)cc(C)c1O	100	41.3	–	–
CC(C)c1cccc(C(C)C)c1O [PROPOFOL]	100	> 100	–	–
Cc1ccc(S(=O)(=O)n2cc(Cc3cc(C)c(O)c(C)c3)c3cc(C)ccc32)cc1	12.3	20.7	–	–
Cc1cc(Cc2cn(C(=O)c3ccc(N4CCOCC4)cc3)c3ccccc23)cc(C)c1O	12.7	12.6	–	–
